According to ChEMBL document CHEMBL6153051, “Synthesis, biological evaluation and validation of IMB-881 derivatives as anti-Gram-negative bacterial agents” (Bioorg Med Chem, 2025):
In brackets after ≈: the same amount, converted by molar mass.

How the values were obtained:
Escherichia coli [1] = assay: Antibacterial activity against Escherichia coli ATCC 25922 assessed as bacterial growth inhibition in presence of CAMHB medium by broth microdilution method; assay type: functional
Escherichia coli [2] = assay: Antibacterial activity against ESBL(+) producing Escherichia coli ATCC 35218 assessed as bacterial growth inhibition in presence of CAMHB medium by broth microdilution method; assay type: functional
Acinetobacter baumannii [3] = assay: Antibacterial activity against Acinetobacter baumannii ATCC 19606 assessed as bacterial growth inhibition in presence of CAMHB medium by broth microdilution method; assay type: functional
Klebsiella pneumoniae = assay: Antibacterial activity against Klebsiella pneumoniae ATCC […] assessed as bacterial growth inhibition in presence of CAMHB medium by broth microdilution method; assay type: functional
Pseudomonas aeruginosa = assay: Antibacterial activity against Pseudomonas aeruginosa PAO1 assessed as bacterial growth inhibition in presence of CAMHB medium by broth microdilution method; assay type: functional
[4] = Cytotoxicity against green monkey Vero cells incubated for 48 hrs by CCK-8 assay; assay type: toxicity, cell-based; conditions: green monkey (Chlorocebus sabaeus)
[5] = Cytotoxicity against dog MDCK cells incubated for 48 hrs by CCK-8 assay; assay type: toxicity, cell-based; conditions: dog (Canis lupus familiaris)
Escherichia coli [6] = assay: Antibacterial activity against multi-drug resistant Escherichia coli 1 clinical isolate assessed as bacterial growth inhibition in presence of CAMHB medium by broth microdilution method; assay type: functional
Escherichia coli [7] = assay: Antibacterial activity against multi-drug resistant Escherichia coli 2 clinical isolate assessed as bacterial growth inhibition in presence of CAMHB medium by broth microdilution method; assay type: functional
Escherichia coli [8] = assay: Antibacterial activity against multi-drug resistant Escherichia coli 3 clinical isolate assessed as bacterial growth inhibition in presence of CAMHB medium by broth microdilution method; assay type: functional
Escherichia coli [9] = assay: Antibacterial activity against multi-drug resistant Escherichia coli 4 clinical isolate assessed as bacterial growth inhibition in presence of CAMHB medium by broth microdilution method; assay type: functional
Escherichia coli [10] = assay: Antibacterial activity against multi-drug resistant Escherichia coli 5 clinical isolate assessed as bacterial growth inhibition in presence of CAMHB medium by broth microdilution method; assay type: functional
Acinetobacter baumannii [11] = assay: Antibacterial activity against multi-drug resistant Acinetobacter baumannii 1 clinical isolate assessed as bacterial growth inhibition in presence of CAMHB medium by broth microdilution method; assay type: functional
Acinetobacter baumannii [12] = assay: Antibacterial activity against multi-drug resistant Acinetobacter baumannii 2 clinical isolate assessed as bacterial growth inhibition in presence of CAMHB medium by broth microdilution method; assay type: functional
Acinetobacter baumannii [13] = assay: Antibacterial activity against multi-drug resistant Acinetobacter baumannii 3 clinical isolate assessed as bacterial growth inhibition in presence of CAMHB medium by broth microdilution method; assay type: functional
Acinetobacter baumannii [14] = assay: Antibacterial activity against multi-drug resistant Acinetobacter baumannii 4 clinical isolate assessed as bacterial growth inhibition in presence of CAMHB medium by broth microdilution method; assay type: functional
Acinetobacter baumannii [15] = assay: Antibacterial activity against multi-drug resistant Acinetobacter baumannii 5 clinical isolate assessed as bacterial growth inhibition in presence of CAMHB medium by broth microdilution method; assay type: functional

| SMILES | MIC (Escherichia coli [1]) | MIC (Acinetobacter baumannii [3]) | MIC (Klebsiella pneumoniae) | MIC (Pseudomonas aeruginosa) | IC50 at 48 h [4] | IC50 at 48 h [5] | other results |
| --- | --- | --- | --- | --- | --- | --- | --- |
| Cc1ccc(CCN2COc3c(cc(Cl)c4cccnc34)C2)cc1 | 50 µg/mL |  |  |  |  |  |  |
| Clc1ccc(CN2COc3c(cc(Br)c4cccnc34)C2)cc1 | > 100 µg/mL |  |  |  |  |  |  |
| Clc1cc2c(c3ncccc13)OCN(CCc1cccc(Br)c1)C2 | > 100 µg/mL |  |  |  |  |  |  |
| Fc1cc2c(c3ncccc13)OCN(CCc1ccc(Cl)cc1)C2 | 6.25 µg/mL | 25 µg/mL | 50 µg/mL | 100 µg/mL | > 50 µg/mL | 29.2 µg/mL (≈ 85.2 µM) | MIC (Escherichia coli [2]): 25 µg/mL; MIC (Escherichia coli [6]): 50 µg/mL; MIC (Escherichia coli [7]): 50 µg/mL; MIC (Escherichia coli [8]): 50 µg/mL; MIC (Escherichia coli [9]): 50 µg/mL; MIC (Escherichia coli [10]): 50 µg/mL; MIC (Acinetobacter baumannii [11]): 100 µg/mL; MIC (Acinetobacter baumannii [12]): 50 µg/mL; MIC (Acinetobacter baumannii [13]): 100 µg/mL; MIC (Acinetobacter baumannii [14]): 100 µg/mL; MIC (Acinetobacter baumannii [15]): 100 µg/mL |
| Fc1cc2c(c3ncccc13)OCN(CCc1cccc(Cl)c1)C2 | 6.25 µg/mL | 6.25 µg/mL | 50 µg/mL | 100 µg/mL | > 50 µg/mL | 42.3 µg/mL (≈ 123 µM) | MIC (Escherichia coli [2]): 25 µg/mL; MIC (Escherichia coli [6]): 50 µg/mL; MIC (Escherichia coli [7]): 50 µg/mL; MIC (Escherichia coli [8]): 50 µg/mL; MIC (Escherichia coli [9]): 50 µg/mL; MIC (Escherichia coli [10]): 50 µg/mL; MIC (Acinetobacter baumannii [11]): 6.25 µg/mL; MIC (Acinetobacter baumannii [12]): 25 µg/mL; MIC (Acinetobacter baumannii [13]): 25 µg/mL; MIC (Acinetobacter baumannii [14]): 12.5 µg/mL; MIC (Acinetobacter baumannii [15]): 25 µg/mL |
| Fc1ccc(CCN2COc3c(cc(Cl)c4cccnc34)C2)cc1 | 12.5 µg/mL | 6.25 µg/mL | 50 µg/mL | 100 µg/mL | 40.1 µg/mL (≈ 117 µM) | 17.8 µg/mL (≈ 52.1 µM) |  |
| Fc1cc(CN2COc3c(cc(Cl)c4cccnc34)C2)cc(F)c1F | 25 µg/mL |  |  |  |  |  |  |
| Fc1cc2c(c3ncccc13)OCN(CCc1cccc(Br)c1)C2 | 6.25 µg/mL | 6.25 µg/mL | 50 µg/mL | 100 µg/mL | > 50 µg/mL | 32 µg/mL (≈ 82.5 µM) | MIC (Escherichia coli [2]): 25 µg/mL; MIC (Escherichia coli [6]): 50 µg/mL; MIC (Escherichia coli [7]): 50 µg/mL; MIC (Escherichia coli [8]): 50 µg/mL; MIC (Escherichia coli [9]): 50 µg/mL; MIC (Escherichia coli [10]): 50 µg/mL; MIC (Acinetobacter baumannii [11]): 250 µg/mL; MIC (Acinetobacter baumannii [12]): 25 µg/mL; MIC (Acinetobacter baumannii [13]): 25 µg/mL; MIC (Acinetobacter baumannii [14]): 12.5 µg/mL; MIC (Acinetobacter baumannii [15]): 12.5 µg/mL |
| Clc1cccc(CN2COc3c(cc(Cl)c4cccnc34)C2)c1 | 12.5 µg/mL | 12.5 µg/mL | 50 µg/mL | 100 µg/mL | > 50 µg/mL | 23.9 µg/mL (≈ 69.1 µM) |  |
| Brc1ccc(CCN2COc3c(cc(Br)c4cccnc34)C2)cc1 | 50 µg/mL |  |  |  |  |  |  |
| Fc1cc2c(c3ncccc13)OCN(Cc1ccc(OC(F)(F)F)cc1)C2 | 25 µg/mL |  |  |  |  |  |  |
| COc1ccc(CCN2COc3c(cc(Cl)c4cccnc34)C2)cc1OC | 25 µg/mL |  |  |  |  |  |  |
| Fc1cc2c(c3ncccc13)OCN(CCCCc1ccccc1)C2 | 6.25 µg/mL | 6.25 µg/mL | > 100 µg/mL | 100 µg/mL | 36.1 µg/mL (≈ 107 µM) | 29.3 µg/mL (≈ 87.1 µM) |  |
| Clc1cc2c(c3ncccc13)OCN(Cc1ccccc1)C2 | 12.5 µg/mL | 6.25 µg/mL | > 100 µg/mL | 100 µg/mL | > 50 µg/mL | 33.8 µg/mL (≈ 109 µM) |  |
| Fc1ccc(CN2COc3c(cc(F)c4cccnc34)C2)c(F)c1 | 25 µg/mL |  |  |  |  |  |  |
| FC(F)(F)c1ccc(CN2COc3c(cc(Cl)c4cccnc34)C2)cc1 | 25 µg/mL |  |  |  |  |  |  |
| Clc1cc2c(c3ncccc13)OCN(CCc1ccc(Br)cc1)C2 | 12.5 µg/mL | 6.25 µg/mL | > 100 µg/mL | 100 µg/mL | > 50 µg/mL | 35.2 µg/mL (≈ 87.3 µM) |  |
| Fc1ccc(CCN2COc3c(cc(Br)c4cccnc34)C2)cc1 | 25 µg/mL |  |  |  |  |  |  |
| Clc1cc2c(c3ncccc13)OCN(CCCCc1ccccc1)C2 | 12.5 µg/mL | 3.12 µg/mL | 100 µg/mL | 100 µg/mL | > 50 µg/mL | 33.8 µg/mL (≈ 95.9 µM) |  |
| Fc1cc2c(c3ncccc13)OCN(CCc1ccccc1)C2 | 6.25 µg/mL | 6.25 µg/mL | 50 µg/mL | 100 µg/mL | 14.7 µg/mL (≈ 47.8 µM) | 8.97 µg/mL (≈ 29.1 µM) |  |
| Clc1ccc(CCN2COc3c(cc(Cl)c4cccnc34)C2)cc1 | 12.5 µg/mL | 6.12 µg/mL | > 100 µg/mL | 100 µg/mL | > 50 µg/mL | 39.7 µg/mL (≈ 110 µM) |  |
| Fc1ccc(CCN2COc3c(cc(F)c4cccnc34)C2)cc1 | 12.5 µg/mL | 12.5 µg/mL | 100 µg/mL | 100 µg/mL | 27.7 µg/mL (≈ 84.8 µM) | 15.8 µg/mL (≈ 48.3 µM) |  |
| Fc1cc2c(c3ncccc13)OCN(CCOc1ccccc1)C2 | 25 µg/mL |  |  |  |  |  |  |
| Brc1cc2c(c3ncccc13)OCN(CCCCc1ccccc1)C2 | 25 µg/mL |  |  |  |  |  |  |
| Clc1cc2c(c3ncccc13)OCN(CCOc1ccccc1)C2 | 25 µg/mL |  |  |  |  |  |  |
| COc1ccc(CCN2COc3c(cc(Br)c4cccnc34)C2)cc1OC | > 100 µg/mL |  |  |  |  |  |  |
